{"source": "ChEMBL document CHEMBL4425158", "about": "“Synthesis, structure-activity relationships and biological evaluation of 4,5,6,7-tetrahydropyrazolopyrazines as metabotropic glutamate receptor 5 negative allosteric modulators” (Bioorg Med Chem Lett, 2016)", "key": {"[1]": {"target": "Metabotropic glutamate receptor 5 (Homo sapiens, UniProt P41594)", "sequence (P41594 whole entry)": "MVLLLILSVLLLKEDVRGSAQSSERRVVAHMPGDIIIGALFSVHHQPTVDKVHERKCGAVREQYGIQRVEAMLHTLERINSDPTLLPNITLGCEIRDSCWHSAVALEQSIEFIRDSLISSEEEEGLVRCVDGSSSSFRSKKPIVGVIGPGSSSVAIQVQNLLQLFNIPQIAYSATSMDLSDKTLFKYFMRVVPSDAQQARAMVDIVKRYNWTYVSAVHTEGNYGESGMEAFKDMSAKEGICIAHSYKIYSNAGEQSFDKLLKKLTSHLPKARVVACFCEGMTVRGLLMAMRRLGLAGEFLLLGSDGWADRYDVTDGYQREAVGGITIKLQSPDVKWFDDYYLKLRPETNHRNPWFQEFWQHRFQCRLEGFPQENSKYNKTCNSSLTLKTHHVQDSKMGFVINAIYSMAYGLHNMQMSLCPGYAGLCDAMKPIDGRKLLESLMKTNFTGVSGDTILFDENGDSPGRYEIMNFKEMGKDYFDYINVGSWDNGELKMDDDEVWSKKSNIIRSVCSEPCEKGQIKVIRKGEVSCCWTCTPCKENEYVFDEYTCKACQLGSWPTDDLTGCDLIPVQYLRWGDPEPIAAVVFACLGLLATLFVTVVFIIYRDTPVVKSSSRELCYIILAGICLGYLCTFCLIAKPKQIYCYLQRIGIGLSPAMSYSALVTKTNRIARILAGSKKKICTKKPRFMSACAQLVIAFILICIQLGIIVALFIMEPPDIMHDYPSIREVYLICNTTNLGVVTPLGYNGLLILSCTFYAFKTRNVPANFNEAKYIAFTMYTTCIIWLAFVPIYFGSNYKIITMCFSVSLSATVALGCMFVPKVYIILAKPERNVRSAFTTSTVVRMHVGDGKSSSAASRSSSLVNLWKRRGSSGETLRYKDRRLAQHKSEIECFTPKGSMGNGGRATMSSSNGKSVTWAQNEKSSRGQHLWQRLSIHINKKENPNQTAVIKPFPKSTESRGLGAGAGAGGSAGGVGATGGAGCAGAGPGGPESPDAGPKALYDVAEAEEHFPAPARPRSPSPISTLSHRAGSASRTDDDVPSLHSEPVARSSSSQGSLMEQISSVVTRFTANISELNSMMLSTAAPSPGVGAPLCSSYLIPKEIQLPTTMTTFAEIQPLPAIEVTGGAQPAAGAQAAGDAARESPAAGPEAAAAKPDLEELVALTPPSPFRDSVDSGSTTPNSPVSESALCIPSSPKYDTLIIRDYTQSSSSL", "test": "Negative allosteric modulation of human recombinant mGluR5 expressed in HEK293 cells assessed as L-glutamate-induced intracellular calcium mobilization incubated for 20 mins before L-glutamate addition", "assay_type": "functional, cell-based"}, "[2]": {"tested_on": "Mus musculus", "test": "Antidepressant activity in CD1(ICR) mouse assessed as decrease in immobility time at 60 mg/kg, po after 1 hr by tail suspension test", "assay_type": "functional, organism-based"}, "[3]": {"test": "Metabolic stability in rat liver microsomes assessed as compound remaining at 1 uM after 30 mins in presence of NADPH by LC/MS/MS analysis", "assay_type": "ADME, Microsome", "details": "read-out: Stability"}, "[4]": {"target": "T1, Cytochrome P450 2C8 (Homo sapiens, UniProt P10632)", "T1 sequence (P10632 whole entry)": "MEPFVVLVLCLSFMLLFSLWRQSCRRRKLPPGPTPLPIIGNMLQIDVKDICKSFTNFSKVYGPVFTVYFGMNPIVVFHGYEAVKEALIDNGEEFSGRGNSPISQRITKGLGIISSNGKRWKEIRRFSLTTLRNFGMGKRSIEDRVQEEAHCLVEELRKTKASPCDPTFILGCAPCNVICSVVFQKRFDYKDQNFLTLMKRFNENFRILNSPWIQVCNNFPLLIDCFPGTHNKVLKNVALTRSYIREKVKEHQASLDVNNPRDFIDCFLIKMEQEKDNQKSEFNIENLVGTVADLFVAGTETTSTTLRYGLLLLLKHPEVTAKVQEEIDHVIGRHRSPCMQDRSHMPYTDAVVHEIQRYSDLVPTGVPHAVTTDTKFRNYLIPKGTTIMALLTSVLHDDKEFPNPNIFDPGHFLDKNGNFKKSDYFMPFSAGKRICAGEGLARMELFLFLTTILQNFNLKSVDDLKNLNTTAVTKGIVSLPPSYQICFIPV", "test": "Inhibition of CYP2C8 in human liver microsomes using amodiaquin as substrate after 10 mins in presence of NADPH by LC/MS/MS analysis", "assay_type": "ADME"}, "[5]": {"target": "T2, Cytochrome P450 1A2 (Homo sapiens, UniProt P05177)", "T2 sequence (P05177 whole entry)": "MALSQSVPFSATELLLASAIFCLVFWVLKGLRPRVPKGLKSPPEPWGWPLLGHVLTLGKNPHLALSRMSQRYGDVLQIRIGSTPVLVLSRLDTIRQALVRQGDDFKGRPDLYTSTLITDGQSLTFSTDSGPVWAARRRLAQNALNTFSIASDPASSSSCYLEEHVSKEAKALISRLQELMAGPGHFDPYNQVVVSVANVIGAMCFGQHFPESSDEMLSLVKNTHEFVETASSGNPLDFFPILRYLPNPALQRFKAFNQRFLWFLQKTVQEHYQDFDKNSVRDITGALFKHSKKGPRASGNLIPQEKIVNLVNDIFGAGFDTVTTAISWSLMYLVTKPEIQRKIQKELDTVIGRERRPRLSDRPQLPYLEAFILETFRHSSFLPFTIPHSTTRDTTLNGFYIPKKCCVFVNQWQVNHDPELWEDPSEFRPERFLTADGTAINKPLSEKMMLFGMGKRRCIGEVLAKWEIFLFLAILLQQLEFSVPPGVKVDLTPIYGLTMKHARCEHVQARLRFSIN", "test": "Inhibition of CYP1A2 in human liver microsomes using phenacetin as substrate after 10 mins in presence of NADPH by LC/MS/MS analysis", "assay_type": "ADME"}, "[6]": {"target": "Cytochrome P450 3A4 (Homo sapiens, UniProt P08684)", "sequence (P08684 whole entry)": "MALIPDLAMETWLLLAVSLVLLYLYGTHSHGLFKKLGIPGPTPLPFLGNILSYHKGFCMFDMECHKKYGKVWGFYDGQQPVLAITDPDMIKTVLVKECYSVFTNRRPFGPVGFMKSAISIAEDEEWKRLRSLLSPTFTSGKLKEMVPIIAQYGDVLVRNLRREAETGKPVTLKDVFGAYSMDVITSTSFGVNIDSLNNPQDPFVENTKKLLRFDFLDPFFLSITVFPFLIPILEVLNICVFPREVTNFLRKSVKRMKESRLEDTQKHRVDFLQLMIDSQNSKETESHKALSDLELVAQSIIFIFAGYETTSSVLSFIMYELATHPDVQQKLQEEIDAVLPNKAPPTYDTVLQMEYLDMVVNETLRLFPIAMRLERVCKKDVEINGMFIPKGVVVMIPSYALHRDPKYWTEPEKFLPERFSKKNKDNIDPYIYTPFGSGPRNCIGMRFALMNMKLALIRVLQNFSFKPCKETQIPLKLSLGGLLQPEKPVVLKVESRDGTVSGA", "test": "Inhibition of CYP3A4 in human liver microsomes using midazolam as substrate after 10 mins in presence of NADPH by LC/MS/MS analysis", "assay_type": "ADME"}, "[7]": {"target": "Cytochrome P450 2D6 (Homo sapiens, UniProt P10635)", "sequence (P10635 whole entry)": "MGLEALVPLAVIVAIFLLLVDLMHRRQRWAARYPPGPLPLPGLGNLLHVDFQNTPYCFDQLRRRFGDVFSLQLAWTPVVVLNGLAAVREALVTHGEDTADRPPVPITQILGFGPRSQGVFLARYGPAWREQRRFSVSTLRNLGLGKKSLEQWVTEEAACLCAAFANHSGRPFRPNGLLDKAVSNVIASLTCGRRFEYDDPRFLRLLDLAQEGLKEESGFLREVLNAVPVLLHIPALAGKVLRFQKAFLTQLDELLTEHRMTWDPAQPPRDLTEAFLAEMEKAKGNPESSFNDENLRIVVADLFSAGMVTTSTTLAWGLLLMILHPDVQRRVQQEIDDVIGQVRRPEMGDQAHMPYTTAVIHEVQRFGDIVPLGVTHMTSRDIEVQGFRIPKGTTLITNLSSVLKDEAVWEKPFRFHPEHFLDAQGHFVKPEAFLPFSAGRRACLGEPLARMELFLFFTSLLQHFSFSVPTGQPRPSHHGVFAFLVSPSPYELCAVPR", "test": "Inhibition of CYP2D6 in human liver microsomes using bufuralol as substrate after 10 mins in presence of NADPH by LC/MS/MS analysis", "assay_type": "ADME"}, "[8]": {"test": "Aqueous solubility of the compound at pH 7.4", "assay_type": "physicochemical"}, "[9]": {"target": "Cytochrome P450 2C19 (Homo sapiens, UniProt P33261)", "sequence (P33261 whole entry)": "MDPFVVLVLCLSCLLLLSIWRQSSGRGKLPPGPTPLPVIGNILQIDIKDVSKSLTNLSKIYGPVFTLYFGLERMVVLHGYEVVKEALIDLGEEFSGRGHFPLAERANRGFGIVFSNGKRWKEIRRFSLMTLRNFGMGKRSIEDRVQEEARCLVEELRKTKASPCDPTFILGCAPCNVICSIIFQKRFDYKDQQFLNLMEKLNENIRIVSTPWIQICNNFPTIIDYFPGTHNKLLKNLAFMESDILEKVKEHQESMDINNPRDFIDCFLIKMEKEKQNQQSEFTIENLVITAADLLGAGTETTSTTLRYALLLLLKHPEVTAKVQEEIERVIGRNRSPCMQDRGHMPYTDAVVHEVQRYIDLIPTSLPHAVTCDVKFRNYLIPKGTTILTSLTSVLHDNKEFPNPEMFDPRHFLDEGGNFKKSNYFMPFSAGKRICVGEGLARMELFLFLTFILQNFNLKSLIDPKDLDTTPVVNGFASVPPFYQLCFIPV", "test": "Inhibition of CYP2C19 in human liver microsomes using (S)-mephenytoin as substrate after 10 mins in presence of NADPH by LC/MS/MS analysis", "assay_type": "ADME"}, "[10]": {"target": "T3, Cytochrome P450 2A6 (Homo sapiens, UniProt P11509)", "T3 sequence (P11509 whole entry)": "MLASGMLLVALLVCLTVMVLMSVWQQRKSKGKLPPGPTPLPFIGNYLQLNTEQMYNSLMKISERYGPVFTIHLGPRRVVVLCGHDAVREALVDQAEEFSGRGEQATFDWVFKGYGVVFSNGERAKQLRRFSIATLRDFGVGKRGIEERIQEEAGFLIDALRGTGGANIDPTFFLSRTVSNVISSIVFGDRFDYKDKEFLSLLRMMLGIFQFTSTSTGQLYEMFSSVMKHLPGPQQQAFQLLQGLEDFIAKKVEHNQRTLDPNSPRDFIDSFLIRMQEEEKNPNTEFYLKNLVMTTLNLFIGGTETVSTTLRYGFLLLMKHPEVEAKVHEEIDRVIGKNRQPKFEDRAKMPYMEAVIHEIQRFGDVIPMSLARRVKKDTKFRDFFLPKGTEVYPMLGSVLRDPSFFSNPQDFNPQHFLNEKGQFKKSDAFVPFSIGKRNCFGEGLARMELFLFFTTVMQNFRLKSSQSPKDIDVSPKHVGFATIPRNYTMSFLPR", "test": "Inhibition of CYP2A6 in human liver microsomes using coumarin as substrate after 10 mins in presence of NADPH by LC/MS/MS analysis", "assay_type": "ADME"}, "[11]": {"test": "Metabolic stability in human liver microsomes assessed as compound remaining at 1 uM after 30 mins in presence of NADPH by LC/MS/MS analysis", "assay_type": "ADME, Microsome", "details": "read-out: Stability"}, "[12]": {"test": "Aqueous solubility of the compound at pH 1.2", "assay_type": "physicochemical"}, "[13]": {"target": "Cytochrome P450 2C9 (Homo sapiens, UniProt P11712)", "sequence (P11712 whole entry)": "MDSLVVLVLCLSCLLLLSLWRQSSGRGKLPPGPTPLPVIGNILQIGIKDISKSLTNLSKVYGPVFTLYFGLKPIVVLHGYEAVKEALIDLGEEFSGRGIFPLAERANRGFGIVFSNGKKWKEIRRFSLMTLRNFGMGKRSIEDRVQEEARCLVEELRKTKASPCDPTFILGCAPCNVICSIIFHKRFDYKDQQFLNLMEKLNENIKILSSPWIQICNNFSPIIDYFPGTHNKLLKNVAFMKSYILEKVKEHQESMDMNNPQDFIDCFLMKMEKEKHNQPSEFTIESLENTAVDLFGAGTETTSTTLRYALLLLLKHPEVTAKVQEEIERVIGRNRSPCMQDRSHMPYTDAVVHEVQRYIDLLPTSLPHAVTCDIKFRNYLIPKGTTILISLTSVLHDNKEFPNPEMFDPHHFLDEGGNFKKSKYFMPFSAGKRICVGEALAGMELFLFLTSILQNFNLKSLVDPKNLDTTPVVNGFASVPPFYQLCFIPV", "test": "Inhibition of CYP2C9 in human liver microsomes using diclofenac as substrate after 10 mins in presence of NADPH by LC/MS/MS analysis", "assay_type": "ADME"}}, "note": "Activity calls are given as the source filed them. The rule behind the calls is not given here."}
{"compound": "Cc1ccc(-c2cc3n(n2)CCN(C(=O)c2ccccc2)C3)nc1", "values": [{"measurement": "IC50", "setting": "[1]", "value": 244, "unit": "nM"}]}
{"compound": "O=C(c1cccc(Cl)c1)N1CCn2nc(-c3ccccn3)cc2C1", "values": [{"measurement": "IC50", "setting": "[1]", "value": 176, "unit": "nM"}]}
{"compound": "O=C(c1ccccc1)N1CCn2nc(-c3ccncc3)cc2C1", "values": [{"measurement": "IC50", "setting": "[1]", "value": 1290, "unit": "nM"}]}
{"compound": "CN(C)CCCN1c2ccccc2CCc2ccccc21", "values": [{"measurement": "Activity", "setting": "[2]", "value": "Active"}]}
{"compound": "N#Cc1cccc(C(=O)N2CCn3nc(-c4ccc(F)cn4)cc3C2)c1", "values": [{"measurement": "IC50", "setting": "[1]", "value": "> 10000", "unit": "nM"}]}
{"compound": "Cc1cc(F)cc(C(=O)N2CCn3nc(-c4ccc(F)cn4)cc3C2)c1", "values": [{"measurement": "IC50", "setting": "[1]", "value": 197, "unit": "nM"}]}
{"compound": "O=C(c1cc(Cl)cc(Cl)c1)N1CCn2nc(-c3ccccn3)cc2C1", "values": [{"measurement": "IC50", "setting": "[1]", "value": 270, "unit": "nM"}]}
{"compound": "O=C(c1ccccc1)N1CCn2nc(-c3cccnc3)cc2C1", "values": [{"measurement": "IC50", "setting": "[1]", "value": "> 10000", "unit": "nM"}]}
{"compound": "COc1cccc(C(=O)N2CCn3nc(-c4ccc(F)cn4)cc3C2)c1", "values": [{"measurement": "IC50", "setting": "[1]", "value": 482, "unit": "nM"}]}
{"compound": "O=C(c1ccccc1)N1CCn2nc(-c3ccccn3)cc2C1", "values": [{"measurement": "remaining at 0.5 h, 1 µM", "setting": "[3]", "value": 95, "unit": "%"}, {"measurement": "IC50", "setting": "[4]", "value": "> 50000", "unit": "nM"}, {"measurement": "IC50", "setting": "[5]", "value": "> 50000", "unit": "nM"}, {"measurement": "IC50", "setting": "[6]", "value": "> 50000", "unit": "nM"}, {"measurement": "IC50", "setting": "[1]", "value": 235, "unit": "nM"}, {"measurement": "IC50", "setting": "[7]", "value": "> 50000", "unit": "nM"}, {"measurement": "solubility", "setting": "[8]", "value": "> 100", "unit": "µg/mL"}, {"measurement": "IC50", "setting": "[9]", "value": "> 50000", "unit": "nM"}, {"measurement": "IC50", "setting": "[10]", "value": "> 50000", "unit": "nM"}, {"measurement": "remaining at 0.5 h, 1 µM", "setting": "[11]", "value": 92, "unit": "%"}, {"measurement": "solubility", "setting": "[12]", "value": "> 100", "unit": "µg/mL"}, {"measurement": "IC50", "setting": "[13]", "value": "> 50000", "unit": "nM"}]}
{"compound": "O=C(c1ccccc1)N1CCn2nc(-c3ccc(F)cn3)cc2C1", "values": [{"measurement": "IC50", "setting": "[1]", "value": 164, "unit": "nM"}]}
{"compound": "Cc1cccc(C(=O)N2CCn3nc(-c4ccc(F)cn4)cc3C2)c1", "values": [{"measurement": "IC50", "setting": "[1]", "value": 150, "unit": "nM"}]}
